The target in the assay is T1, full length AKT1 (Homo sapiens, UniProt P31749).
T1 construct: His tag (from vector pFastBacHTb; purified on Nickel Sepharose) (N); made in house; host or cells: baculovirus; Sf9 / T. ni insect cells
Description: Full-Length AKT Enzyme Assay (substrate phosphorylation, SPA). In kind it is biochemical. Particulars: in at least one experimental run; pIC50 = -log(IC50), IC50 in molar units; 10 nM activated AKT enzyme, 4 uM ATP, 8 uM peptide; read-out: pIC50 value against full length AKT1 (converted). The source says: Cloning of Full-Length Human (FL) AKT1:
Full-length human AKT1 gene was amplified by PCR from a plasmid containing myristylated-AKT1-ER (gift from Robert T. Abraham, Duke University under MTA, described in Klippel et al. in Molecular and Cellular Biology 1998 Volume 18 p. 5699) using the 5′ primer: SEQ. ID NO: 2 5′ […] 3′ and the 3′ primer: SEQ. ID NO: 3 […] 3′. The 5′ primer included a BamHI site and the 3′primer included an XhoI site for cloning purposes. The resultant PCR product was subcloned in pcDNA3 as a BamHI/XhoI fragment. A mutation in the sequence (TGC) coding for a Cysteine^25 was converted to the wild-type AKT1 sequence (CGC) coding for an Arginine^25 by site-directed mutagenesis using the QuikChange® Site Directed Mutagenesis Kit (Stratagene). The AKT1 mutagenic primer: SEQ. ID NO: 4 5′ […] and selection primer: SEQ. […] For expression/purification purposes, AKT1 was isolated as a BamHI/XhoI fragment and cloned into the BamHI/XhoI sites of pFastbacHTb (Invitrogen).
Expression was done using the BAC-to-BAC Baculovirus Expression System from Invitrogen (catalog #10359-016). […]
Compounds of the present invention were tested for AKT 1, 2, and 3 protein serine kinase inhibitory activity in substrate phosphorylation assays. […] Substrate phosphorylation was detected by the following procedure. […]

The structures appear in SMILES notation.

T1 sequence (P31749 whole entry): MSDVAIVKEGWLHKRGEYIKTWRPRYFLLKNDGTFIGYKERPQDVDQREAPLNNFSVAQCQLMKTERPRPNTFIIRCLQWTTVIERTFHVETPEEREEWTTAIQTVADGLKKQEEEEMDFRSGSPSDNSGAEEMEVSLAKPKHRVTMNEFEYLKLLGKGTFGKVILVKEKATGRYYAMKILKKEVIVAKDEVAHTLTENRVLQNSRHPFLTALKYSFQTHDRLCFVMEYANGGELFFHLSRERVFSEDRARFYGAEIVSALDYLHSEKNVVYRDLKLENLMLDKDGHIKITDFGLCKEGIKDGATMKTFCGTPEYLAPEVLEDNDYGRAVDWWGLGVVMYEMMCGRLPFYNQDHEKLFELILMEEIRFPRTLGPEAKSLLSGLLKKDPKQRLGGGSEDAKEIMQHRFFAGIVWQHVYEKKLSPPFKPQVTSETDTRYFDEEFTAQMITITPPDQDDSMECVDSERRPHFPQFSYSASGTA

On to `Cn1nccc1-c1ccc(C(=O)NC(CN)Cc2ccccc2)cn1` (stereo not shown) [Example 2, N-[2-amino-1-(phenylmethyl)ethyl]-6-(1-methyl-1H-pyrazol-5-yl)-3-pyridinecarboxamide], for which the IC50 was 10 nM.

These data come from patent US8338434B2, “Inhibitors of Akt activity” (GlaxoSmithKline LLC, priority 2007, dated 2012).
